Patent US5455233A, “Oligoribonucleoside and oligodeoxyribonucleoside boranophosphates” (University of North Carolina, priority 1992, dated 1995)

What was measured:
serum cholesterol = assay: Antihyperlipidemic activity: serum cholesterol levels in male CF1 mice; type: in vivo; conditions: for Percent Inhibition, Serum Cholesterol, Day 9: Day 9, 8 mg/kg intraperitoneally; for Percent Inhibition, Serum Cholesterol, Day 16: Day 16, 8 mg/kg intraperitoneally
Protocol: (§1) Compounds to be tested were suspended in 1% aqueous carboxymethylcellulose,homogenized and administered to male CF1 mice (25 g) intraperitoneally for 16d. On days 9 and 16, blood was obtained by tail vein bleeding, and the serum was separated by centrifugation for three minutes. The serum cholesterol levels were determined by a modification of the Liebermann-Burchard reaction in accordance with known techniques. See A. Ness, et al., Clin. Chim. Acta 10, 229 (1964). Serum triglyceride levels were determined with a commercial kit, the Fisher Hycel Triglyceride Test Kit, for a different group of animals bled on day 16.

serum triglyceride = assay: Antihyperlipidemic activity: serum triglyceride levels in male CF1 mice; type: in vivo; conditions: 8 mg/kg intraperitoneally
Protocol: as §1

[1] = tested on: inflammatory response (carrageenan, hind foot); assay: Anti-inflammatory activity: carrageenan-induced paw inflammation in CF1 male mice; type: in vivo; conditions: 8 mg/kg intraperitoneally 3 hours and 30 minutes prior to carrageenan; feet excised after 3 hours
Protocol: Anti-Inflammatory Activity CF1 male mice (~25 g) were administered test drugs at 5-40 mg/kg in 0.05% Tween 80-H2 O intraperitoneally 3 hours prior to and 30 minutes prior to the injection of 0.2 ml of 1% carrageenan in 0.9% saline into the plantar surface of the right hind foot. Saline was injected into the left hind foot, which serves as a base line. After 3 hours, both feet were excised at the tibiotarsal (ankle) joint according to standard procedures. See C. Winter et al., Proc. Soc. Expt. Biol Med. 544, 111 (1962); A. Roszkawski et al., J. Pharm. Exp. Ther. 179, 114 (1971). Control mice afforded a 78±3 mg increase in paw weight.

[2] = tested on: KB epidermoid oral nesopharnyx; assay: Cytotoxic activity, KB epidermoid oral nesopharnyx; type: cell-based; conditions: cell density estimated when controls converged
Protocol: The cytotoxic activity of oligonucleoside boranophosphates of the present invention was tested on the following neoplastic cell lines:
6. KB epidermoid oral nesopharnyx. R. Geran, supra; H. Eagle, Proc. Soc. Expt. Biol. 89, 362 (1955) (grown in EMEM+5% calf serum).
The cytotoxic screens were conducted according to NIH protocols, see E. Huang et al., J. Pharm. Sci. 61, 108 (1972), with 10^4 cells, growth medium, antibiotics and drugs from 0.5 to 100 μg/ml final concentration. For the L1210, Hela-S, amd Tmolt, (i.e. the suspended cells), the incubations were conducted in sterile test tubes in a final volume of 1 ml for 72 hr at 37° C. in a CO2 incubator. The cells on the third day were still in log growth phase. The number of cells/ml are determined using trypan blue exclusion and a hemocytometer. See, e.g., R. Geran, supra. For solid tumors 1×10^4 cells are plated with 1 ml of medium+ antibiotics and the other components of growth. When the controls have converged (≈95%) then the density of the cells is estimated and the ED50 values calculated.

## thymidylyl[3'-5']-(3'-acetylthymidylyl) (borane)phosphonate methyl ester [Compound A]
Serum cholesterol
  Percent Inhibition, Serum Cholesterol, Day 9: 38%
  Percent Inhibition, Serum Cholesterol, Day 16: 46%
Serum triglyceride
  Percent Inhibition, Serum Triglyceride, Day 16: 12%
[1]
  Percent Inhibition of the inflammatory response: 37%
[2]
  ED50, KB: 3.51 µg/mL

## thymidylyl[3'-5']thymidylyl[3'-5'](3'-acetylthymidylyl) boranephosphonate dimethyl ester [Compound T]
Serum cholesterol
  Percent Inhibition, Serum Cholesterol, Day 9: 33%
  Percent Inhibition, Serum Cholesterol, Day 16: 32%
Serum triglyceride
  Percent Inhibition, Serum Triglyceride, Day 16: 18%
[1]
  Percent Inhibition of the inflammatory response: 40%
[2]
  ED50, KB: 0.61 µg/mL
